According to EP0726261A1, “Herbidical 1,2,4 thiadiazoles” (American Cyanamid Company, priority 1995, dated 1996):

Tests used:
Type in all cases: in vivo
Glycine max [1] = experiment: Herbicidal activity, preemergence test (Example 66); set-up: key: A rating of 0 indicates growth as untreated control; a rating of 9 indicates death; conditions: pre; 1000 g/ha; assessed visually twenty days after spraying
Procedure: (§1) To evaluate their herbicidal activity, compounds according to the invention are tested using a representative range of plants: ZEAMX Zea mays ORYSA Oryza sativa GLXMA Glycine max BEAVA Beta vulgaris LIUUT Linum usitatissimum AVEFA Avena fatua ECHCG Echinochloa crus-galli SINAL Sinapsis alba
(§2) The tests fall into two categories, preemergence and postemergence. The preemergence tests involve spraying a liquid formulation of the compound onto the soil in which the seeds of the plant species mentioned above have recently been sown. The postemergence tests involve spraying a liquid formulation of the compound onto seedling plants of the above species.
(§3) The soil used in the tests is a prepared horticultural loam.
(§4) The formulations used in the tests are prepared from solutions of the test compounds in acetone containing 0.4% by weight of an alkylphenol/ethylene oxide condensate available under the trademark TRITON X-155. These acetone solutions are diluted with water and the resulting formulations applied at dosage levels corresponding to 1000 g of active material per hectare in a volume equivalent to 900 litres per hectare.
(§5) In the preemergence tests, untreated sown soil, and in the postemergence tests, untreated soil bearing seedling plants, are used as controls.
(§6) The herbicidal effects of the test compounds are assessed visually twenty days after spraying the foliage and the soil and are recorded on a 0-9 scale. A rating of 0 indicates growth as untreated control, a rating of 9 indicates death. An increase of 1 unit on the linear scale approximates to an 11% increase in the level of effect.

Avena fatua [2] = experiment: as above; set-up: key: A rating of 0 indicates growth as untreated control; a rating of 9 indicates death; conditions: pre; 1000 g/ha; assessed visually twenty days after spraying
Procedure: as §1, §2, §3, §4, §5, §6

Beta vulgaris [3] = experiment: as above; set-up: key: A rating of 0 indicates growth as untreated control; a rating of 9 indicates death; conditions: pre; 1000 g/ha; assessed visually twenty days after spraying
Procedure: as §1, §2, §3, §4, §5, §6

Linum usitatissimum [4] = experiment: as above; set-up: key: A rating of 0 indicates growth as untreated control; a rating of 9 indicates death; conditions: pre; 1000 g/ha; assessed visually twenty days after spraying
Procedure: as §1, §2, §3, §4, §5, §6

Sinapsis alba [5] = experiment: as above; set-up: key: A rating of 0 indicates growth as untreated control; a rating of 9 indicates death; conditions: pre; 1000 g/ha; assessed visually twenty days after spraying
Procedure: as §1, §2, §3, §4, §5, §6

Echinochloa crus-galli [6] = experiment: as above; set-up: key: A rating of 0 indicates growth as untreated control; a rating of 9 indicates death; conditions: pre; 1000 g/ha; assessed visually twenty days after spraying
Procedure: as §1, §2, §3, §4, §5, §6

Zea mays [7] = experiment: as above; set-up: key: A rating of 0 indicates growth as untreated control; a rating of 9 indicates death; conditions: pre; 1000 g/ha; assessed visually twenty days after spraying
Procedure: as §1, §2, §3, §4, §5, §6

Oryza sativa [8] = experiment: as above; set-up: key: A rating of 0 indicates growth as untreated control; a rating of 9 indicates death; conditions: pre; 1000 g/ha; assessed visually twenty days after spraying
Procedure: as §1, §2, §3, §4, §5, §6

Glycine max [9] = experiment: Herbicidal activity, postemergence test (Example 66); conditions: post; 1000 g/ha; assessed visually twenty days after spraying
Procedure: as §1, §2, §3, §4, §5, §6

Avena fatua [10] = experiment: as above; set-up: key: A rating of 0 indicates growth as untreated control; a rating of 9 indicates death; conditions: post; 1000 g/ha; assessed visually twenty days after spraying
Procedure: as §1, §2, §3, §4, §5, §6

Beta vulgaris [11] = experiment: as above; set-up: key: A rating of 0 indicates growth as untreated control; a rating of 9 indicates death; conditions: post; 1000 g/ha; assessed visually twenty days after spraying
Procedure: as §1, §2, §3, §4, §5, §6

Linum usitatissimum [12] = experiment: as above; set-up: key: A rating of 0 indicates growth as untreated control; a rating of 9 indicates death; conditions: post; 1000 g/ha; assessed visually twenty days after spraying
Procedure: as §1, §2, §3, §4, §5, §6

Sinapsis alba [13] = experiment: as above; set-up: key: A rating of 0 indicates growth as untreated control; a rating of 9 indicates death; conditions: post; 1000 g/ha; assessed visually twenty days after spraying
Procedure: as §1, §2, §3, §4, §5, §6

Echinochloa crus-galli [14] = experiment: as above; set-up: key: A rating of 0 indicates growth as untreated control; a rating of 9 indicates death; conditions: post; 1000 g/ha; assessed visually twenty days after spraying
Procedure: as §1, §2, §3, §4, §5, §6

Zea mays [15] = experiment: as above; set-up: key: A rating of 0 indicates growth as untreated control; a rating of 9 indicates death; conditions: post; 1000 g/ha; assessed visually twenty days after spraying
Procedure: as §1, §2, §3, §4, §5, §6

Oryza sativa [16] = experiment: as above; set-up: key: A rating of 0 indicates growth as untreated control; a rating of 9 indicates death; conditions: post; 1000 g/ha; assessed visually twenty days after spraying
Procedure: as §1, §2, §3, §4, §5, §6

SMILES | herbicidal effects on a 0-9 scale, GLXMA (Glycine max [1]) | herbicidal effects on a 0-9 scale, AVEFA (Avena fatua [2]) | herbicidal effects on a 0-9 scale, BEAVA (Beta vulgaris [3]) | herbicidal effects on a 0-9 scale, LIUUT (Linum usitatissimum [4]) | herbicidal effects on a 0-9 scale, SINAL (Sinapsis alba [5]) | herbicidal effects on a 0-9 scale, ECHCG (Echinochloa crus-galli [6]) | herbicidal effects on a 0-9 scale, ZEAMX (Zea mays [7]) | herbicidal effects on a 0-9 scale, ORYSA (Oryza sativa [8]) | herbicidal effects on a 0-9 scale, GLXMA (Glycine max [9]) | herbicidal effects on a 0-9 scale, AVEFA (Avena fatua [10]) | herbicidal effects on a 0-9 scale, BEAVA (Beta vulgaris [11]) | herbicidal effects on a 0-9 scale, LIUUT (Linum usitatissimum [12]) | herbicidal effects on a 0-9 scale, SINAL (Sinapsis alba [13]) | herbicidal effects on a 0-9 scale, ECHCG (Echinochloa crus-galli [14]) | herbicidal effects on a 0-9 scale, ZEAMX (Zea mays [15]) | herbicidal effects on a 0-9 scale, ORYSA (Oryza sativa [16])
O=C(NCc1cccs1)c1nc(-c2ccc(F)cc2)ns1 [Example 14] | 0 | 0 | 0 | 0 | 0 | 0 | 0 | 0 | 2 | 0 | 8 | 5 | 8 | 2 | 0 | 0
C[C@H](NC(=O)c1nc(-c2ccc(F)cc2)ns1)c1ccccc1 [Example 16, (S)-3-(4-Fluorophenyl)-[1,2,4]thiadiazole-5-carboxylic acid, 1-(phenylethyl)amide] | 0 | 0 | 0 | 0 | 0 | 0 | 0 | 0 | 6 | 7 | 9 | 7 | 9 | 8 | 0 | 2
CCNC(=O)c1nc(-c2ccc(F)cc2)ns1 [Example 17] | 0 | 0 | 0 | 0 | 0 | 0 | 0 | 0 | 5 | 4 | 7 | 2 | 8 | 2 | 2 | 0
C=CCNC(=O)c1nc(-c2ccc(F)cc2)ns1 [Example 18] | 0 | 0 | 0 | 0 | 0 | 0 | 0 | 0 | 6 | 2 | 8 | 5 | 9 | 0 | 0 | 0
CC(C)CNC(=O)c1nc(-c2ccc(F)cc2)ns1 [Example 19] | 0 | 0 | 0 | 0 | 0 | 0 | 0 | 0 | 6 | 0 | 8 | 2 | 8 | 0 | 0 | 0
